# Experimental data reported in patent publication US20240368191A1, “HETEROCYCLIC COMPOUNDS AND USES THEREOF” (Kumquat Biosciences Inc., priority 2021, published 2024).
# Key:
# [1] = molecular target: T1, KRAS G12S 1-169 (His-tagged, GDP-loaded) (Homo sapiens, UniProt P01116, G12S); assay: Covalent modification of KRAS protein by intact-protein LC-MS; assay type: binding; settings: for % G12S Modification at 24 hr.: KRAS G12S
# T1 construct: His -tagged GDP-loaded G12S 1-169; made in house; host or cells: E. coli, e.g. BL21 (DE3)
# Outline: (§1)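 Percent modification is derived from deconvoluted intact-protein LC-ESI-MS peak intensities of adducted versus unmodified KRAS. GDP-loaded His-tagged KRAS 1-169 (~2 μM, HEPES buffer at physiological conditions) was exposed to compound for 24 hrs at room temperature, then quenched with formic acid before C4 reversed-phase separation.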
# in vitro = settings: microsomes, pH 7.4
# [2] = molecular target: T2, KRAS G12D 1-169 (His-tagged, GDP-loaded) (Homo sapiens, UniProt P01116, G12D); assay: Covalent modification of KRAS protein by intact-protein LC-MS; assay type: binding; settings: comparable or same conditions as K-Ras G12S
# T2 construct: His -tagged GDP-loaded G12D 1-169; made in house; host or cells: E. coli, e.g. BL21 (DE3)
# Outline: as §1
Structure (SMILES),K-Ras12S engagement after 24-hour treatment ([1]; 24-hour treatment),% G12S Modification at 24 hr. [1],half-life at 0.5 μM (in vitro) [min],covalent labeling of K-Ras G12D [2]
"N#Cc1cn(C(=O)N2C3CCC2CN(c2nc(OC[C@@]45CCCN4C[C@H](F)C5)nc4c(F)c(-c5ccc(F)c6sc(N)nc56)c(Cl)cc24)C3)cn1 [Compound A123, 1-(3-(7-(2-amino-7-fluorobenzo-[d]thiazol-4-yl)-6-chloro-8-fluoro-2-(((2R,7aS)-2-fluoro-tetrahydro-1H-pyrrolizin-7a(5H)-yl)methoxy)quinazolin-4-yl)-3,8-diazabicyclo[3.2.1]-octane-8-carbonyl)-1H-imid-azole-4-carbonitrile]",++ (++: indicates between 1% to 20% labelling),++ (++ indicates between about 1%-20% labelling),,
"N#Cc1c(N)sc2c(F)ccc(-c3ncc4c(N5CC6CCC(C5)N6C(=O)n5ccnc5C#N)nc(OC[C@@]56CCCN5C[C@H](F)C6)nc4c3F)c12 [Compound A165, 1-(3-(7-(2-amino-3-cyano-7-fluorobenzo[b]thiophen-4-yl)-8-fluoro-2-(((2R,7aS)-2-fluoro-tetrahydro-1H-pyrrolizin-7a(5H)-yl)methoxy)pyrido[4,3-d]pyrimidin-4-yl)-3,8-diaza-bicyclo[3.2.1]octane-8-carbon-yl)-1H-imidazole-2-carbonitrile]",,,> 10,essentially no detectable labeling
"N#Cc1nccn1C(=O)N1C2CCC1CN(c1nc(OC[C@@]34CCCN3C[C@H](F)C4)nc3c(F)c(-c4ccc(F)c5sc(N)nc45)c(Cl)cc13)C2 [Compound A170, 1-(3-(7-(2-amino-7-fluorobenzo-[d]thiazol-4-yl)-6-chloro-8-fluoro-2-(((2R,7aS)-2-fluoro-tetrahydro-1H-pyrrolizin-7a(5H)-yl)methoxy)quinazolin-4-yl)-3,8-diazabicyclo[3.2.1]-octane-8-carbonyl)-1H-imid-azole-2-carbonitrile]",,++ (++ indicates between about 1%-20% labelling),,
"C#Cc1c(F)ccc2cc(O)cc(-c3ncc4c(N5C6COCC5CN(C(=O)n5cc(C#N)cn5)C6)nc(OC[C@@]56CCCN5C[C@H](F)C6)nc4c3F)c12 [Compound A226, 1-(9-(7-(8-ethynyl-7-fluoro-3-hydroxynaphthalen-1-yl)-8-fluoro-2-(((2R,7aS)-2-fluoro-tetrahydro-1H-pyrrolizin-7a(5H)-yl)methoxy)pyrido[4,3-d]pyrimidin-4-yl)-3-oxa-7,9-diazabicyclo[3.3.1]nonane-7-carbonyl)-1H-pyrazole-4-carbo-nitrile]",,,> 10,
"C#Cc1c(F)ccc2cc(O)cc(-c3ncc4c(N5CC6CCC(C5)N6C(=O)n5cncn5)nc(OC[C@@]56CCCN5C[C@H](F)C6)nc4c3F)c12 [Compound A234, (3-(7-(8-ethynyl-7-fluoro-3-hydroxynaphthalen-1-yl)-8-fluoro-2-(((2R,7aS)-2-fluoro-tetrahydro-1H-pyrrolizin-7a(5H)-yl)methoxy)pyrido[4,3-d]pyrimidin-4-yl)-3,8-diaza-bicyclo[3.2.1]octan-8-yl)(1H-1,2,4-triazol-1-yl)methanone]",,,> 10,
"N#Cc1cnn(C(=O)N2CC3COCC(C2)N3c2nc(OC[C@@]34CCCN3C[C@H](F)C4)nc3c(F)c(-c4ccc(F)c5sc(N)c(C#N)c45)c(Cl)cc23)c1 [Compound A249, 1-(9-(7-(2-amino-3-cyano-7-fluorobenzo[b]thiophen-4-yl)-6-chloro-8-fluoro-2-(((2R,7aS)-2-fluorotetrahydro-1H-pyrrolizin-7a(5H)-yl)methoxy)quinazolin-4-yl)-3-oxa-7,9-diazabicyclo-[3.3.1]nonane-7-carbonyl)-1H-pyrazole-4-carbonitrile]",,,> 10,
"N#Cc1cnn(C(=O)N2C3CCC2CN(c2nc(OC[C@@]45CCCN4C[C@H](F)C5)nc4c(F)c(-c5ccc(F)c6sc(N)nc56)c(Cl)cc24)C3)c1 [Compound A253, 1-(3-(7-(2-amino-7-fluorobenzo-[d]thiazol-4-yl)-6-chloro-8-fluoro-2-(((2R,7aS)-2-fluoro-tetrahydro-1H-pyrrolizin-7a(5H)-yl)methoxy)quinazolin-4-yl)-3,8-diazabicyclo[3.2.1]-octane-8-carbonyl)-1H-pyrazole-4-carbonitrile]",,,> 10,
"C#Cc1c(F)ccc2cc(O)cc(-c3ncc4c(N5CC6CCC(C5)N6C(=O)n5cnc(C#N)c5)nc(OC[C@@]56CCCN5C[C@H](F)C6)nc4c3F)c12 [Compound A255, 1-(3-(7-(8-ethynyl-7-fluoro-3-hydroxynaphthalen-1-yl)-8-fluoro-2-(((2R,7aS)-2-fluoro-tetrahydro-1H-pyrrolizin-7a(5H)-yl)methoxy)pyrido[4,3-d]pyrimidin-4-yl)-3,8-diaza-bicyclo[3.2.1]octane-8-carbon-yl)-1H-imidazole-4-carbonitrile]",,++ (++ indicates between about 1%-20% labelling),,essentially no detectable labeling
"N#Cc1c(N)sc2c(F)ccc(-c3c(Cl)cc4c(N[C@H]5C[C@H]6CC[C@@H](C5)N6C(=O)n5cncn5)nc(OC[C@@]56CCCN5C[C@H](F)C6)nc4c3F)c12 [Compound A257, 4-(4-(((1R,3r,5S)-8-(1H-1,2,4-triazole-1-carbonyl)-8-aza-bicyclo-[3.2.1]octan-3-yl)-amino)-6-chloro-8-fluoro-2-(((2R,7aS)-2-fluorotetrahydro-1H-pyrrolizin-7a(5H)-yl)meth-oxy)quinazolin-7-yl)-2-amino-7-fluorobenzo[b]thiophene-3-carbonitrile]",,++ (++ indicates between about 1%-20% labelling),,essentially no detectable labeling
"N#Cc1c(N)sc2c(F)ccc(-c3c(Cl)cc4c(N5CC6CCC(C5)N6C(=O)n5cncn5)nc(OC[C@@]56CCCN5C[C@H](F)C6)nc4c3F)c12 [Compound A260, 4-(4-(8-(1H-1,2,4-triazole-1-carbonyl)-3,8-diazabicyclo-[3.2.1]octan-3-yl)-6-chloro-8-fluoro-2-(((2R,7aS)-2-fluoro-tetrahydro-1H-pyrrolizin-7a(5H)-yl)methoxy)quinazolin-7-yl)-2-amino-7-fluorobenzo-[b]thiophene-3-carbonitrile]",,,> 10,
"N#Cc1c(N)sc2c(F)ccc(-c3c(Cl)cc4c(N5CCN(C(=O)n6cncn6)CC(F)(F)C5)nc(OC[C@@]56CCCN5C[C@H](F)C6)nc4c3F)c12 [Compound A280, 2-amino-4-(6-chloro-4-(6,6-difluoro-4-(1H-1,2,4-triazole-1-carbonyl)-1,4-diazepan-1-yl)-8-fluoro-2-(((2R,7aS)-2-fluoro-tetrahydro-1H-pyrrolizin-7a(5H)-yl)methoxy)quinazolin-7-yl)-7-fluorobenzo[b]thio-phene-3-carbonitrile]",,+++ (+++ indicates greater than 20% labelling),,essentially no detectable labeling
"C#Cc1c(F)ccc2cc(O)cc(-c3ccc4c(N5CC6CCC(C5)N6C(=O)n5cncn5)nc(OC[C@@]56CCCN5C[C@H](F)C6)nc4c3F)c12 [Compound A281, (3-(7-(8-ethynyl-7-fluoro-3-hydroxynaphthalen-1-yl)-8-fluoro-2-(((2R,7aS)-2-fluoro-tetrahydro-1H-pyrrolizin-7a(5H)-yl)methoxy)quinazolin-4-yl)-3,8-diazabicyclo[3.2.1]-octan-8-yl)(1H-1,2,4-triazol-1-yl)methanone]",,,> 10,
